From BigSolDB 2.1

COc1ccc(C(=O)c2ccc(OC)cc2)cc1
solubility (mole fraction)
Settings | in benzene | in ethanol | in ethyl acetate | in isobutanol | in isopropanol | in methanol | in methyl acetate | in n-butanol | in n-propanol | in n-propyl acetate
293.15 K | 0.0123 | 0.00091 | 0.00908 | 0.00101 | 0.00079 | 0.00067 | 0.00958 | 0.00114 | 0.00114 | 0.00947
298.15 K | 0.0149 | 0.00109 | 0.0111 | 0.00137 | 0.001 | 0.00081 | 0.0115 | 0.00164 | 0.00141 | 0.0112
303.15 K | 0.018 | 0.00141 | 0.0129 | 0.00168 | 0.0013 | 0.00104 | 0.0138 | 0.00214 | 0.00177 | 0.0126
308.15 K | 0.0221 | 0.00188 | 0.0155 | 0.00237 | 0.00193 | 0.00134 | 0.0166 | 0.00306 | 0.00224 | 0.0151
313.15 K | 0.0278 | 0.0024 | 0.0189 | 0.00313 | 0.00241 | 0.00181 | 0.0204 | 0.0036 | 0.00314 | 0.0187
318.15 K | 0.0338 | 0.00302 | 0.023 | 0.00404 | 0.00308 | 0.00219 | 0.0248 | 0.00457 | 0.00403 | 0.0229
323.15 K | 0.041 | 0.00402 | 0.0284 | 0.00539 | 0.00423 | 0.00286 | 0.0311 | 0.00612 | 0.00538 | 0.0277
328.15 K | 0.0504 | 0.00516 | 0.0343 | 0.00718 | 0.00549 | 0.0037 | 0.0376 | 0.00824 | 0.00707 | 0.0329
333.15 K | 0.063 | 0.00653 | 0.0408 | 0.00972 | 0.0075 | 0.00473 | – | 0.00996 | 0.00928 | 0.0406
